Source: US20090018136A1, “METHODS AND COMPOSITIONS FOR THE TREATMENT OF VASCULAR DISEASE” (priority 2005, published 2009)
Where a name gives a salt, the structure may show the parent alone.

Experiments:
[1] = for water adsorbed (hygroscopicity): content to which the form adsorbs water; for water adsorbed (hygroscopicity) / hygroscopicity: dihydrochloride
[2] = tested on: sickle cell transgenic (PS) mice; conditions: administration to sickle cell transgenic (PS) mice; cited from earlier work
beagles = conditions: dog, in vivo
Protocol: This study evaluated the cardiovascular effects of high doses of 6R-BH4 in combination with the PDE5 inhibitor sildenafil citrate in vivo. Eight male research nonnaïve and naïve purebred beagles were dosed in a double Latin square crossover design as described in the following table. All animals were dosed by oral gavage. Test articles were administered at a dose volume of 5 mL/kg (for a total volume of 10 mL/kg for the combination dose); control animals were dosed at a dose volume of 10 mL/kg. 6R-BH4 (sapropterin dihydrochloride) provided as 300 mg tablets (100 mg active 6R-BH4/tablet) stored at room temperature with desiccant.
At initiation of treatment, the animals were approximately 7 to 10 months old, and their body weights prior to dosing ranged from 7.8 to 12.0 kg.
At least 2 weeks prior to initiation of treatment, animals were fasted overnight, anesthetized, and an electrocardiogram (ECG) and blood pressure transmitter were implanted into the abdomen and sutured to the abdominal wall. The blood pressure catheter was placed in an artery and advanced to the abdominal aorta. Animals were checked twice daily (a.m. and p.m.) for mortality, abnormalities, and signs of pain and distress. Additional findings were recorded as observed.
Detailed observations were taken three times during the predose phase (including the day before dosing) and on Days 3 and 10 of the dosing phase. For each dosing day, ECG and pressure measurements were recorded for at least 90 minutes prior to dosing, continuously for at least 8 hours after dosing, and then for one period of at least 15 minutes in duration each hour through at least 24 hours postdose. Blood pressure measurements included systolic, diastolic, and mean arterial pressures and pulse pressure (systolic-diastolic). […]
Quantitative evaluation of ECG measurements, including RR interval, QT, and rate-corrected QT (QTc, using Fridericia's method), were done.
Positive inotropic effects (+dP/dtmax) and heart rate were calculated from a left ventricular pressure signal predose and approximately 2, 4, 8, 12, and 24 hours postdose. […]

hypertensive patients = assay: Study 2: dose-response of oral BH4 on blood pressure and heart rate, after 2-week vitamin C run-in; assay type: in vivo, human
Protocol: Prior studies have used parenteral infusion of BH4 or a single oral dose; thus it was not known whether long-term oral BH4 over a period of days to weeks would result in a sustained improvement in endothelial dysfunction. […] Two studies were conducted to investigate the duration of action of oral BH4 and the response of hypertensive subjects to different doses of BH4. […] Patients were continued on their current anti-hypertensive therapy which remained unchanged. […] BH4 powder was obtained from Schircks Laboratories (Jona, Switzerland). BH4 when administered with vitamin C was compounded with vitamin C at a ratio of 1 mg of vitamin C/1 mg BH4 into appropriate sized capsules. Subjects were advised to keep the pills in a freezer or refrigerator. For both study 1 and study 2, the primary end point after statistical analysis was a reduction of systolic, mean and diastolic BP during BH4 therapy. Secondary end points included improvement of endothelial function as FMD. Linear mixed effects models for repeated measures data were used to analyze change in BP from baseline to end of treatment period and differences in change between 100 mg and 200 mg dose groups. A quadratic term for week was included in the model to account for non-linear trends over the treatment period. Dose, week and week squared were the main effect terms in the model; dose by week and dose by week squared were the interaction terms in the model. Significant interaction terms indicate a difference in the pattern of change between the two dose groups. FMD data was analyzed using the two-tailed student t-test. […] Of the 20 subjects who qualified for participation, 4 were excluded during the run-in phase because of inability to return for follow-up appointments. There were 6 male subjects, mean age 59.5±8.3 years. Eight subjects received 200 mg b.i.d (twice daily) of oral BH4 and 8 received 100 mg b.i.d. of oral BH4. […] Because BH4 was compounded with vitamin C in a 1:1 ratio, all subjects received vitamin C, at their assigned BH4 dose, twice a day during the first 2-week period. After this 2-week run-in period, subjects received BH4 only at their assigned dosage for the next 4 weeks. Weekly heart rate and BP measurements were made during the run-in period and treatment period. Mean blood pressure was calculated as: (SBP+2×DBP)/3. BH4 was then stopped and follow-up was performed at 1 and 4 weeks after discontinuation where BP and heart rate measurements were made. Routine chemistries and LFT's were drawn prior to initiation of medication, at the end of BH4 therapy and one month after discontinuation of BH4.

In the case of C[C@H](O)[C@H](O)[C@H]1CNc2nc(N)[nH]c(=O)c2N1.Cl.Cl [form A, (6R)-L-erythro-tetrahydrobiopterin dihydrochloride], the “water adsorbed (hygroscopicity)” value [1] is reported as “about 3 percent by weight”, the hygroscopicity [1] is reported as “slightly hygroscopic” and the “phase equilibration test of suspensions” value ([1]; tetrahydrofuran five days or tertiary-butyl methyl ether 18 hours, under nitrogen at room temperature, then filtration and air-drying) is reported as “unchanged”.

With C[C@H](O)[C@H](O)[C@H]1CNc2nc(N)[nH]c(=O)c2N1.Cl.Cl [form B, (6R)-L-erythro-tetrahydrobiopterin dihydrochloride] the hygroscopicity [1] was “slightly hygroscopic”.

For C[C@H](O)[C@H](O)[C@H]1CNc2nc(N)[nH]c(=O)c2N1.Cl.Cl [form C, (6R)-L-erythro-tetrahydrobiopterin dihydrochloride], the hygroscopicity [1] was “slightly hygroscopic”.

With C[C@H](O)[C@H](O)[C@H]1CNc2nc(N)[nH]c(=O)c2N1.Cl.Cl [form D, (6R)-L-erythro-tetrahydrobiopterin dihydrochloride] the hygroscopicity [1] was “slightly hygroscopic”.

In the case of C[C@H](O)[C@H](O)[C@H]1CNc2nc(N)[nH]c(=O)c2N1.Cl.Cl [form E, (6R)-L-erythro-tetrahydrobiopterin dihydrochloride], the hygroscopicity [1] is reported as “non-hygroscopic”.

In the case of C[C@H](O)[C@H](O)[C@H]1CNc2nc(N)[nH]c(=O)c2N1.Cl.Cl [form F, (6R)-L-erythro-tetrahydrobiopterin dihydrochloride], the “water adsorbed (hygroscopicity)” value [1] is reported as “about 3 percent by weight” and the hygroscopicity [1] is reported as “slightly hygroscopic”.

In the case of C[C@H](O)[C@H](O)[C@H]1CNc2nc(N)[nH]c(=O)c2N1.Cl.Cl [form J, (6R)-L-erythro-tetrahydrobiopterin dihydrochloride], the hygroscopicity [1] is reported as “slightly hygroscopic”.

For C[C@H](O)[C@H](O)[C@H]1CNc2nc(N)[nH]c(=O)c2N1.Cl.Cl [form K, (6R)-L-erythro-tetrahydrobiopterin dihydrochloride], the “water adsorbed (hygroscopicity)” value [1] was “about 2.0 percent by weight” and the hygroscopicity [1] was “slightly hygroscopic”.

In the case of C[C@H](O)C(=O)C1=Nc2c(nc(N)[nH]c2=O)NC1 [sepiapterin], the blood cell adhesion [2] is listed as “attenuation”.

With CCCc1nn(C)c2c(=O)[nH]c(-c3cc(S(=O)(=O)N4CCN(C)CC4)ccc3OCC)nc12 [sildenafil citrate] the Arterial pulse pressure (beagles) was “significantly increased” and the Heart rate (beagles) was “significantly increased”.

In the case of O=C1O[C@H]([C@@H](O)CO)C(O)=C1O [vitamin C, ascorbic acid, reference compound], the “diastolic arterial BP” value (hypertensive patients; Study 2, 16 subjects, after 2 weeks of vitamin C run-in, 84±13 before, p=ns) is reported as 86±11 mmHg, the “mean arterial BP” value (hypertensive patients; Study 2, 16 subjects, after 2 weeks of vitamin C run-in, 106±10 before, p=ns) is reported as 106±12 mmHg and the “systolic arterial BP” value (hypertensive patients; Study 2, 16 subjects, after 2 weeks of vitamin C run-in, 152±11 before, p=ns) is reported as 148±19 mmHg. The “change in heart rate or BP during the run-in phase” value (hypertensive patients; Study 2, vitamin C twice a day for 2 weeks, either group) was “no significant change”.
